Experimental data: patent US9695155B2, “Herbicidal substituted pyrimidinyloxy benzene compounds” (E. I. DU PONT DE NEMOURS AND COMPANY, priority 2013, dated 2017)

How the values were obtained:
pigweed = experiment: Test A preemergence; format: in vivo, Amaranthus retroflexus
Method in brief: (§1)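 Compounds in non-phytotoxic solvent with surfactant applied as soil spray preemergence, or postemergence to plants 2-10 cm at one- to two-leaf stage, in loam/sand. After approximately 10 days in greenhouse, injury rated visually versus untreated controls, 0 (no effect) to 100 (complete control).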

giant foxtail = experiment: Test A preemergence; format: in vivo, Setaria faberii
Method in brief: as §1

Italian ryegrass = experiment: Test C postemergence; format: in vivo, Lolium multiflorum; details: for Plant response rating (0 to 100), Ryegrass, Italian: 16 g ai/ha, 0 is no effect, 100 is complete control
Method in brief: (§2)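 Seeds were sown in loam–sand blend and sprayed preemergence, while plants at 1- to 4-leaf stage (2–18 cm) in peat-based medium received postemergence sprays; test chemicals were formulated in a non-phytotoxic solvent with surfactant. After 13–15 days in a greenhouse, injury was rated visually against controls, 0 (no effect) to 100 (complete control).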

yellow nutsedge = experiment: Test C postemergence; format: in vivo, Cyperus esculentus; details: for Plant response rating (0 to 100), Nutsedge, Yellow: 16 g ai/ha, 0 is no effect, 100 is complete control
Text: (§3) Seeds of plant species selected from blackgrass (Alopecurus myosuroides), Italian ryegrass (Lolium multiflorum), wheat, winter (winter wheat, Triticum aestivum), galium (catchweed bedstraw, Galium aparine), corn (Zea mays), large (Lg) crabgrass (Digitaria sanguinalis), giant foxtail (Setaria faberii), johnsongrass (Sorghum halepense), lambsquarters (Chenopodium album), morningglory (Ipomoea coccinea), yellow nutsedge (Cyperus esculentus), pigweed (Amaranthus retroflexus), ragweed (common ragweed, Ambrosia elatior), soybean (Glycine max), barnyardgrass (Echinochloa crus-galli), oilseed rape (Brassica napus), waterhemp (common waterhemp, Amaranthus rudis), kochia (Kochia scoparia), wild oat (Avena fatua), surinam grass (Brachiaria decumbens), foxtail, green (green foxtail, Setaria viridis), goosegrass (Eleusine indica), bromegrass, downy (downy bromegrass, Bromus tectorum), nightshade (eastern black nightshade, Solanum ptycanthum), cocklebur (common cocklebur, Xanthium strumarium), cupgrass, woolly (woolly cupgrass, Eriochloa villosa), bermudagrass (Cynodon dactylon), sunflower, (common oilseed sunflower, Helianthus annuus), Russian thistle (Salsola kali), and velvetleaf (Abutilon theophrasti) were planted into a blend of loam soil and sand and treated preemergence with test chemicals formulated in a non-phytotoxic solvent mixture which included a surfactant.
(§4) At the same time, plants selected from these crop and weed species and also barley, winter (winter barley, Hordeum vulgare), windgrass (Apera spica-venti), chickweed (common chickweed, Stellaria media), deadnettle (henbit deadnettle, Lamium amplexicaule), and canarygrass (littleseed canarygrass, Phalaris minor) were planted in pots containing Redi-Earth® planting medium (Scotts Company, 14111 Scottslawn Road, Marysville, Ohio 43041) comprising spaghnum peat moss, vermiculite, wetting agent and starter nutrients and treated with postemergence applications of test chemicals formulated in the same manner. Plants ranged in height from 2 to 18 cm (1- to 4-leaf stage) for postemergence treatments. Treated plants and controls were maintained in a greenhouse for 13 to 15 days, after which time all species were compared to controls and visually evaluated. Plant response ratings, summarized in Table C, are based on a scale of 0 to 100 where 0 is no effect and 100 is complete control. A dash (-) response means no test result.

kochia = experiment: Test C postemergence; format: in vivo, Kochia scoparia; details: for Plant response rating (0 to 100), Kochia: 16 g ai/ha, 0 is no effect, 100 is complete control
Method in brief: as §2

galium = experiment: Test C postemergence; format: in vivo, Galium aparine; details: for Plant response rating (0 to 100), Galium: 16 g ai/ha, 0 is no effect, 100 is complete control
Text: as §3, §4

barnyardgrass = experiment: Test C postemergence; format: in vivo, Echinochloa crus-galli; details: for Plant response rating (0 to 100), Barnyardgrass: 16 g ai/ha, 0 is no effect, 100 is complete control
Text: as §3, §4

wheat, winter = experiment: Test C postemergence; format: in vivo, Triticum aestivum; details: for Plant response rating (0 to 100), Wheat: 16 g ai/ha, 0 is no effect, 100 is complete control
Text: as §3, §4

rice = experiment: Test B flooded paddy test; format: in vivo, Oryza sativa; details: Flood, 250 g ai/ha; 0 to 100 scale where 0 is no effect and 100 is complete control
Method in brief: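 Plants at 2-leaf stage; pots flooded to 3 cm above soil and compound applied directly into paddy water, depth held throughout. After 13 to 15 days in greenhouse, visual rating versus controls on 0 (no effect) to 100 (complete control) scale.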

corn = experiment: Test C postemergence; format: in vivo, Zea mays; details: for Plant response rating (0 to 100), Corn: 16 g ai/ha, 0 is no effect, 100 is complete control
Text: as §3, §4

[1] = 125 g ai/ha, 0 to 100 scale where 0 is no effect and 100 is complete control
[2] = 125 g ai/ha, postemergence, visual rating, scale 0 to 100 (0 no effect, 100 complete control)
[3] = Postemergence, 62 g ai/ha, scale 0 to 100 (0 no effect, 100 complete control)
[4] = 1000 g ai/ha, 0 to 100 scale, 0 no effect, 100 complete control, approx. 10 days
[5] = 31 g ai/ha, postemergence, visual rating, scale 0 to 100 (0 no effect, 100 complete control), 13 to 15 days

SMILES	Plant response rating (0 to 100), Ryegrass, Italian (Italian ryegrass; postemergence)	Plant response rating, Ryegrass, Italian (Italian ryegrass; [2])	Plant response rating, Ryegrass, Italian (Italian ryegrass; [3])	Plant response rating (0 to 100), Nutsedge, Yellow (yellow nutsedge; postemergence)	Plant response rating, Nutsedge, Yellow (yellow nutsedge; [2])	Plant response rating, Nutsedge, Yellow (yellow nutsedge; [3])	Plant response rating (0 to 100), Kochia (kochia; postemergence)	Plant response rating, Kochia (kochia; [2])	Plant response rating, Kochia (kochia; [3])	Plant response rating (0 to 100), Galium (galium; postemergence)	Plant response rating, Galium (galium; [2])	Plant response rating, Galium (galium; [3])	Plant response rating (0 to 100), Barnyardgrass (barnyardgrass; postemergence)	Plant response rating, Barnyardgrass (barnyardgrass; [2])	Plant response rating, Barnyardgrass (barnyardgrass; [3])	Plant response rating (0 to 100), Wheat (wheat, winter; postemergence)	Plant response rating, Wheat (wheat, winter; [2])	Plant response rating, Wheat (wheat, winter; [3])	Plant response rating, Rice (rice)	Plant response rating (0 to 100), Corn (corn; postemergence)	also measured
FCc1cccc(Oc2ncc(Br)cn2)c1-n1cc(C(F)(F)F)cn1 [Compound 120]	0	5	0	0	25	10	75	100	95	30	60	30	5	10	10	0	0	0	0	5	Pigweed plant response rating (0 to 100 scale) (pigweed; 31 g ai/ha): 100; Plant response rating, Pigweed (pigweed; [1]): 100; Foxtail, Giant plant response rating (0 to 100 scale) (giant foxtail; 31 g ai/ha): 50; Plant response rating, Foxtail, Giant (giant foxtail; [1]): 100; Plant response rating, Barnyardgrass (barnyardgrass; Postemergence, 31 g ai/ha, scale 0 to 100 (0 no effect, 100 complete control), 13 to 15 days): 5; Plant response rating, Corn (corn; [2]): 10; Plant response rating, Corn (corn; [3]): 5
Fc1cccc(Oc2ncc(Cl)cn2)c1-n1cc(C2CC2)nn1 [Compound 155]	0	10	10	5	5	5	80	100	98	75	100	98	0	10	5	5	35	15	50	5	Pigweed plant response rating (pigweed; [4]): 100; Foxtail, Giant plant response rating (giant foxtail; [4]): 100; Ryegrass, Italian plant response rating (Italian ryegrass; [5]): 0; Nutsedge, Yellow plant response rating (yellow nutsedge; [5]): 5; Kochia plant response rating (kochia; [5]): 98; Galium plant response rating (galium; [5]): 95; Barnyardgrass plant response rating (barnyardgrass; [5]): 5; Wheat plant response rating (wheat, winter; [5]): 10; Corn plant response rating (corn; [5]): 5; Plant response rating, Corn (corn; [2]): 10; Plant response rating, Corn (corn; [3]): 5
